Test results reported in patent publication US20260200849A1, “CATIONIC LIPIDS AND PREPARATION METHOD THEREOF” (RiboX Therapeutics HK Limited, priority 2024, published 2026).
Several values for one entry are separate records, joined by “and”; a condition that tells them apart may be missing. Equal values may be shown once. Read-outs that look alike come from different tables or passages of the source.

Tests used:
[1] = LNP size and polydispersity index (PDI) by dynamic light scattering (Zetasizer); assay type: physicochemical; conditions: for Size (nm): Formulation No. 001 (Ionizable lipid:DSPC:cholesterol:DMG-PEG2000 = 50:10:38.5:1.5, N/P 6), RNA No. 331
Experimental: (§1) The LNP size and polydispersity index (PDI), determined by dynamic light scattering (DLS), and zeta potential were measured by a Zetasizer machine (Malvern). RNA concentration and encapsulation efficacy (EE %) were analyzed by the Quant-IT Ribogreen kit by calculating the percentage encapsulation at 100%—(RNA-LNPs/RNA-LNPs with Triton X-100).

MCP-1 = test: In vivo tolerability by IV: serum MCP-1 by Luminex; design: species or system C57BL/6J mice; conditions: IV 1.0 mg/kg, male C57BL/6J mice N=3, Formulation 001, RNA 331
Experimental: (§2) 6-8 week old, male C57BL/6J mice (N=3) were injected with 1.0 mg*kg/1 of RNA-LNPs encoding for firefly-luciferase by intravenous injection. At 2- and 24-hours post injection, about 40 μL blood was harvested and immediately added to the procoagulant containing tube. Stand for 30 min at room temperature and then centrifuged at 2500 g×10 min to obtain serum. About 15 μL serum samples were aliquoted for cytokine (MCP-1 and IL-6) detection by Luminex (ProcartaPlex Mouse 2-plex, Thermo). PBS group as negative control.
as §2, with “mg*kg−1” for “mg*kg/1”

IL-6 = test: In vivo tolerability by IV: serum IL-6 by Luminex; design: species or system C57BL/6J mice; conditions: IV 1.0 mg/kg, male C57BL/6J mice N=3, Formulation 001, RNA 331
Experimental: as §2
as §2, with “mg*kg−1” for “mg*kg/1”

Balb/c mice = test: In vivo expression by IV, 0.05 mg/kg luciferase RNA-LNPs, IVIS luminescence; conditions: IV 0.05 mg/kg, 24 h post injection, female Balb/c mice N=3, Formulation 001, RNA 331
Experimental: (§3) 7-8 week old, female Balb/c mice (N=3) were injected with 0.05 mg*kg−1 of RNA-LNPs encoding for firefly-luciferase by intravenous injection. At 24- and 72-hours post injection, animals were intraperitoneally injected with 15 mg/mi of Luciferin substrate and whole-body luminescence was determined by a bioluminescent in vivo imaging system (IVIS).
as §3, with “24-hours” for “24- and 72-hours”, “mg/ml” for “mg/mi”, “whole-body/liver/spleen” for “whole-body”

[2] = RNA encapsulation efficacy (EE %) by Quant-IT Ribogreen kit; assay type: physicochemical; conditions: LNP
Experimental: as §1

C57BL/6J mice = test: In vivo expression by IV, 1.0 mg/kg luciferase RNA-LNPs, whole-body and organ IVIS luminescence; conditions: IV 1.0 mg/kg, 24 h post injection, male C57BL/6J mice N=3, Formulation 001, RNA 331
Experimental: (§4) 6-8 week old, male C57BL/6J mice (N=3) were injected with 1.0 mg*kg−1 of RNA-LNPs encoding for firefly-luciferase by intravenous injection. At 24-hours post injection, animals were intraperitoneally injected with 15 mg/ml of Luciferin substrate and whole-body/liver/spleen/kidney/small intestine/large intestine luminescence were determined by a bioluminescent in vivo imaging system (IVIS).
as §4, with “mg/nil” for “mg/ml”

[3] = In vivo lipid metabolism by IV: ionizable lipid concentration in plasma and liver by LC-MS/MS; design: species or system Sprague-Dawley (SD) rats; conditions: IV 0.15 mg/kg RNA-LNPs (hEPO), male SD rats, individual animals N=3
Experimental: In Vivo Lipid Metabolism by IV 7-8 week old, male Sprague-Dawley (SD) rats (N=3) were injected with 0.15 mg*kg−1 of RNA-LNPs encoding for hEPO by intravenous injection. At 1-/6-/96-/168-hours post injection, about 100 μL blood will be harvested and immediately added to the EDTAK2 containing tube. Place on wet ice and then centrifuged at 3000 g×5 min to obtain plasma. 30 μL plasma will be aliquoted to the 1.5 mL tubes. At terminal 6-/168-hours post injection, the rats will be euthanized with CO2, hemorrhaged immediately with cardiac puncture, respectively. The livers were harvested, weighed and washed with saline, then put into 50 ml centrifuge tube placed in liquid nitrogen, then transferred into wet ice, and finally stored at −80° C. immediately. Both plasma and liver samples were used for ionizable lipid concentration quantification by LC-MS/MS. The lower limit of quantitation (LLOQ) is 1 ng/mL in plasma or 11 ng/g in liver. BQL—Below the lower limit of quantitation (LLOQ).

[4] = Formulation No. 001, RNA No. 331
[5] = Formulation No. 001, RNA No. 019 (hEPO)
[6] = male, Sprague-Dawley, rat, liver, iv, 0.15 mg/kg, 6 h post injection, read-out: Liver (ng/g), ionizable lipid concentration
[7] = male, Sprague-Dawley, rat, plasma, iv, 0.15 mg/kg, 1 h post injection
[8] = male, Sprague-Dawley, rat, plasma, iv, 0.15 mg/kg, 6 h post injection, read-out: Plasma (ng/mL), ionizable lipid concentration

PDI [1, 4]	Size [1, 4]	EE (%) [2, 4]	Size (nm) [1]	PDI [1, 5]	Size [1, 5]	Plasma (ng/mL), ionizable lipid concentration ([3]; 1 h post injection)	SMILES	MCP-1 at 2 h (MCP-1)	MCP-1 at 24 h (MCP-1)	IL-6 at 2 h (IL-6)	IL-6 at 24 h (IL-6)	Liver (p/s) (Mean) (Balb/c mice)	Spleen (p/s) (Mean) (Balb/c mice)	Whole body (p/s) (Mean) (Balb/c mice)	Kidney (p/s) (C57BL/6J mice)	Large intestine (p/s) (C57BL/6J mice)	Liver (p/s) (C57BL/6J mice)	Small intestine (p/s) (C57BL/6J mice)	Spleen (p/s) (C57BL/6J mice)	Whole body (p/s) (C57BL/6J mice)	also measured
0.08	–	90.29%	59.33 nm	–	–	–	CCCCCCCC/C=C\CCCCCCCCOC(=O)NC(COC(=O)NCCN1CCCCCC1)C(=O)OCCCCCC(=O)OCC(CCCCCCCC)CCCCCCCCCC (centres unmarked) [Lipid 1041]	1180 pg/mL	68.1 pg/mL	51.2 pg/mL	4.53 pg/mL	–	–	–	6.14E+06 p/s	1.74E+07 p/s	1.08E+09 p/s	1.96E+08 p/s	1.93E+08 p/s	8.03E+08 p/s	–
0.04	–	96.51%	52.67 nm	–	–	–	CCCCCCCCCCC(CCCCCCCC)COC(=O)CCCCCOC(=O)NC(COC(=O)NCCN1CCCCCC1)C(=O)OCCCCCCCC(=O)OC(CCCCCCCC)CCCCCCCC (centres unmarked) [Lipid 1072]	554 pg/mL	35.1 pg/mL	2.07 pg/mL	0.947 pg/mL	–	–	–	8.41E+06 p/s	1.22E+07 p/s	1.40E+10 p/s	2.07E+08 p/s	1.95E+08 p/s	6.81E+09 p/s	–
0.05	57.55 nm	93.55%	–	0.04	57.55 nm	2558 ng/mL and 2938 ng/mL	CCCCCCCCCCC(CCCCCCCC)COC(=O)CCCCCOC(=O)NC(COC(=O)NCCN1CCCCCC1)C(=O)OCCCCCC(=O)OCC(CCCCCCCC)CCCCCCCCCC (centres unmarked) [Lipid 1021]	1560 pg/mL	166 pg/mL	28.6 pg/mL	0.639 pg/mL	1.19E+08 p/s	5.32E+07 p/s	8.26E+08 p/s	5.69E+07 p/s	1.91E+08 p/s	1.88E+10 p/s	1.60E+09 p/s	6.45E+08 p/s	1.48E+10 p/s	Liver (ng/g), ionizable lipid concentration ([3]; 6 h post injection): 33582 ng/g and 37570 ng/g; Plasma (ng/mL), ionizable lipid concentration ([3]; 6 h post injection): 976 ng/mL and 1347 ng/mL; Plasma (ng/mL), ionizable lipid concentration ([3]; 96 h post injection): 23.9 ng/mL and 5.16 ng/mL and 9.41 ng/mL; Liver (ng/g), ionizable lipid concentration ([3]; 168 h post injection): 3103 ng/g and 1228 ng/g and 1508 ng/g; Plasma (ng/mL), ionizable lipid concentration ([3]; 168 h post injection): 6.98 ng/mL and 1.89 ng/mL; concentration at 6 h [3, 6]: 48100 ng/g; concentration at 1 h [3, 7]: 3280 ng/mL; concentration at 6 h [3, 8]: 1480 ng/mL; EE (%) [2, 5]: 96.60%

The next lines start with the molecule.

SMILES	PDI [1, 4]	Size [1, 4]	EE (%) [2, 4]	Size (nm) [1]	PDI [1, 5]	Size [1, 5]	Plasma (ng/mL), ionizable lipid concentration ([3]; 1 h post injection)	MCP-1 at 2 h (MCP-1)	MCP-1 at 24 h (MCP-1)	IL-6 at 2 h (IL-6)	IL-6 at 24 h (IL-6)	Liver (p/s) (Mean) (Balb/c mice)	Spleen (p/s) (Mean) (Balb/c mice)	Whole body (p/s) (Mean) (Balb/c mice)	Kidney (p/s) (C57BL/6J mice)	Large intestine (p/s) (C57BL/6J mice)	Liver (p/s) (C57BL/6J mice)	Small intestine (p/s) (C57BL/6J mice)	Spleen (p/s) (C57BL/6J mice)	Whole body (p/s) (C57BL/6J mice)	also measured
CCCCCCCCCCC(CCCCCCCC)COC(=O)CCCCCOC(=O)NC(COC(=O)NCCN(C)C)C(=O)OCCCCCC(=O)OCC(CCCCCCCC)CCCCCCCCCC (centres unmarked) [Lipid 1017]	0.07	69.70 nm	97.70%	–	–	–	–	2430 pg/mL	94.6 pg/mL	12.8 pg/mL	0.792 pg/mL	3.91E+07 p/s	1.30E+07 p/s	2.45E+08 p/s	9.00E+06 p/s	2.09E+07 p/s	9.32E+08 p/s	1.93E+08 p/s	4.32E+08 p/s	1.13E+09 p/s	–
CCCCCCCCCCC(CCCCCCCC)COC(=O)CCCCCOC(=O)NC(COC(=O)NCCN1CCCC1)C(=O)OCCCCCC(=O)OCC(CCCCCCCC)CCCCCCCCCC (centres unmarked) [Lipid 1019]	0.10	68.78 nm	97.11%	–	–	–	–	3720 pg/mL	401 pg/mL	404 pg/mL	2.02 pg/mL	3.60E+07 p/s	2.21E+07 p/s	2.46E+08 p/s	1.46E+07 p/s	2.12E+08 p/s	1.20E+09 p/s	5.41E+08 p/s	4.98E+08 p/s	2.49E+09 p/s	–
CCCCCCCCCCC(CCCCCCCC)COC(=O)CCCCCOC(=O)NC(COC(=O)NCCN1CCCCC1)C(=O)OCCCCCC(=O)OCC(CCCCCCCC)CCCCCCCCCC (centres unmarked) [Lipid 1020]	0.01	57.55 nm	94.34%	–	0.06	55.95 nm	2412 ng/mL and 2622 ng/mL	1930 pg/mL	180 pg/mL	90.5 pg/mL	1.07 pg/mL	1.38E+08 p/s	2.67E+07 p/s	4.91E+08 p/s	5.29E+07 p/s	2.16E+08 p/s	1.90E+10 p/s	1.62E+09 p/s	1.14E+09 p/s	9.25E+09 p/s	Liver (ng/g), ionizable lipid concentration ([3]; 6 h post injection): 38824 ng/g and 43259 ng/g; Plasma (ng/mL), ionizable lipid concentration ([3]; 6 h post injection): 1241 ng/mL and 1471 ng/mL; Plasma (ng/mL), ionizable lipid concentration ([3]; 96 h post injection): 31.2 ng/mL and 26.1 ng/mL; Liver (ng/g), ionizable lipid concentration ([3]; 168 h post injection): 2432 ng/g and 1960 ng/g; Plasma (ng/mL), ionizable lipid concentration ([3]; 168 h post injection): 7.35 ng/mL and 11.3 ng/mL and 4.48 ng/mL; concentration at 6 h [3, 6]: 36500 ng/g; concentration at 168 h ([3]; male, Sprague-Dawley, rat, liver, iv, 0.15 mg/kg, 168 h post injection, read-out: Liver (ng/g), ionizable lipid concentration): 2890 ng/g; concentration at 1 h [3, 7]: 2420 ng/mL; concentration at 6 h [3, 8]: 1210 ng/mL; concentration at 96 h ([3]; male, Sprague-Dawley, rat, plasma, iv, 0.15 mg/kg, 96 h post injection): 33.6 ng/mL; EE (%) [2, 5]: 97.29%
